Data reported in patent EP3570868B1, “[…] ANTIMICROBIAL PEPTIDES AND THEIR APPLICATIONS FOR THE TREATMENT AND PREVENTION OF MUSCU[…]” (Ustav Organicke Chemie a Biochemie AV CR, v.v.i., priority 2017, dated 2018).
Square brackets hold non-standard residues; d marks the D form. Peptide text beside a SMILES is read from it. βAla = NCCC(=O)O

Legend:
Escherichia coli = type: cell-based; details: E.c.; 37° C for 20 h
Protocol: (§1) Gram-positive bacteria (Bacillus subtilis, Staphylococcus aureus, Staphylococcus epidermidis and Enterococcus faecalis), Gram-negative bacteria (Escherichia coli and Pseudomonas aeruginosa) and the yeast (Candida albicans) were grown to exponential phase and then were diluted with fresh medium. BHI medium (Oxoid, Great Britain) was used for Enterococcus faecalis; YPD medium containing yeast extract, peptone and glucose was used for Candida albicans and LB medium (Sigma, Czech Republic) was used for the remaining microorganisms. Then the microorganisms were added to the solutions of the tested antimicrobial peptides in LB medium in multi-well plates, so that the final peptide concentration it the wells was in the range of 0.5 to 100 µmοl.1^-1. The plates were incubated at 37° C for 20 h while being continuously shaken in a Bioscreen C (Oy Growth Curves AB Ltd., Helsinki, Finland). Absorbance was measured at 540 nm every 15 min. Antimicrobial activity (Table 2) was determined as a quantitative minimum inhibitory concentration (MIC) by observing bacterial growth in the presence of different concentrations of tested peptides. In the experiments, ca 10^5 CFU of bacteria or candida per well were used. Tetracycline in a concentration range of 0.5 - 100 µmol.1^-1 was used as a standard.
(§2) Clinical isolates of bacteria were obtained from University Hospital in Motol, Prague, Czech Republic and from Liberec Regional Hospital, Czech Republic. Methicillin resistant Staphylococcus aureus (MRSA) 6271 and Pseudomonas aeruginosa 5482 were from the Czech National Collection of Type Cultures, the National Institute of Public Health, Prague, Czech Republic. Other bacteria were from the Czech Collection of Microorganisms, Brno, Czech Republic. Candida albicans came from the Faculty of Medicine, Palacky University, Olomouc, Czech Republic. Candida tropicalis ATCC 750 and Candida glabrata DSY 565 were obtained from the Institute of Physiology, Academy of Sciences of the Czech Republic.

Candida albicans = type: cell-based; details: C.a.; 37° C for 20 h
Protocol: as §1, §2

Bacillus subtilis = type: cell-based; details: B.s.; 37° C for 20 h
Protocol: as §1, §2

[1] = test system: E.f. (clin. isolate Motol); type: cell-based, Enterococcus faecalis; details: 37° C for 20 h
Protocol: as §1, §2

[2] = test system: S.e. (clin. isolate Motol); type: cell-based, Staphylococcus epidermidis; details: 37° C for 20 h
Protocol: as §1, §2

human red blood cells = assay: Determination of haemolytic activity; type: cell-based; details: human red blood cells (5% v/v), 1 h at 37 °C; concentration for lysis of 50% of erythrocytes
Protocol: The peptides in the concentrations 2-400 µmol.1^-1 were incubated with the suspension of human red blood cells (5% v/v) for 1 h at 37 °C in a physiological solution at a final volume of 0.2 ml. The samples were then centrifuged for 5 min at 250 g. The absorbance of the supernatant was determined at 540 nm. 0.2% (v/v) TRITON X100 was used as a control for 100% haemolysis. Haemolytic activity is expressed as the peptide concentration required for lysis of 50% of human erythrocytes in the assay (LC50). Table 2. Antimicrobial and haemolytic activity of I up to XIII peptides and tetracycline.

MRSA 6271 = type: cell-based, Staphylococcus aureus; details: 37° C for 20 h
Protocol: as §1, §2

[3] = test system: MRSA (clin. isolate Motol); type: cell-based, Staphylococcus aureus; details: 37° C for 20 h
Protocol: as §1, §2

[4] = test system: MRSA (clin. isolate Liberec); type: cell-based, Staphylococcus aureus; details: 37° C for 20 h
Protocol: as §1, §2

[5] = test system: P.a. (clin. isolate Liberec); type: cell-based, Pseudomonas aeruginosa; details: 37° C for 20 h
Protocol: as §1, §2

P.a. 5482 = type: cell-based, Pseudomonas aeruginosa; details: 37° C for 20 h
Protocol: as §1, §2

[6] = test system: S. aureus (clin. isolate Liberec); assay: Induced osteomyelitis model in femur heads: effect of peptides released from carrier on infection in the bone graft; type: cell-based; details: ChronOS (200 mg), 10 mg, two days
Protocol: (§3) 3-4 holes of a diameter of 5 mm and a depth of 10 mm are drilled with a surgical spoon into a femur head under sterile conditions (spongy part of the bone in the resection site). Thereafter, this bone graft is put into a beaker of appropriate size and lined with sterile gauze squares. The gauze is moistened with sterile physiological saline to prevent drying of the bone. Then, suspension of multiplied microbes in an appropriate medium (50-100 µl) at a concentration of 10^7 to 10^9 CFU is sequentially applied to the prepared holes in the bone graft and allowed to incubate for 1-2 days. […] Beaker with the infected bone graft is covered with a sterile Petri dish. During the experiment, induced osteomyelitis models are kept protected from light at room temperature.
(§4) After the incubation, the infected holes in the bone are filled with a mixture of the local carrier, and a peptide selected from the series of peptides of formulae I to XIII or their specific enantiomers (Figure 1). For comparison, one of the holes is filled with the local carrier without peptide, or the carrier filled with antibiotic (vancomycin or gentamicin). A commercially available two-component material supplied by Synthes (Synthes GmbH, Switzerland) under the name ChronOS Inject was used as the carrier. Its solid component comprises a mixture of calcium phosphates CaHPO4.2H2O and Ca3(PO4)2 and additives, the liquid component is 0.5% (vol./vol.) solution of hyaluronic acid.
(§5) After two days, the filling is thoroughly removed with a surgical spoon and empty holes are wiped with moistened sterile cotton swab, which is then extracted into 400 µl physiological saline. The extract is diluted in a tenfold serial dilution and each diluted suspension is cultured on agar in Petri dishes; the culture is evaluated on the following day. […] The result of the peptide effect is also compared with the result of the effect of antibiotics. In some cases, microbiological examination of the bone tissue taken with a surgical spoon from a deeper area of the drilled holes is performed. […] Table 3. Evaluation of the effect of antimicrobial peptides released from the carrier on an infection in the bone graft. Effect of antimicrobial activity is expressed in the number of CFU (colony-forming units) in the infected hole after swabbing.

[7] = test system: MRSA (clin. isolate Liberec); assay: Biofilm formation on the surface of a bone cement implant in femur heads; type: cell-based, Staphylococcus aureus; details: two days, cement without peptide 7,0x10^6
Protocol: The resulting elastic paste is placed into a 2 ml plastic syringe (without needle) and pressed into the infected holes in the spongy part of the bone, where it polymerizes and hardens. For comparison, other similarly infected holes are filled with cement containing only an antibiotic or antimycotic agent. For comparison, a Vancogenx® cement (Tecresa S. p. A., Italy) is used, made from a mixture of a powdered polymer component containing vancomycin and gentamicin. The mixture in an amount of 125 mg is mixed with liquid monomer (50-60 µl) and then pressed into the openings as described above. In another embodiment, the cements are applied to uninfected holes, allowed to harden, and then microbes are pipetted into the hole excavated between implants. From there they penetrate through bone tissue and settle on the implants with consequent formation of biofilms.
After two days, implants are removed with metal spikes and tweezers, mechanically cleaned from debris of bone tissue, and washed four times with physiological saline (0.5 ml) in plastic tubes to remove any residual planktonic microbes or bone cells from their surface. The implants in closed tubes with 0.4 ml saline are then sonicated four times for 3 min with occasional shaking. The of microbial biofilm on the surface of the implant is thus disrupted and microbes are loosed into the physiological saline. […]

[8] = test system: S. epidermidis (clin. isolate Motol); assay: Induced osteomyelitis model in femur heads: effect of peptides released from carrier on infection in the bone graft; type: cell-based; details: ChronOS (300 mg); 10 mg, separate holes; two days; carrier without peptide 1,2x10^5
Protocol: as §3, §4, §5

[9] = test system: Staphylococcus aureus (MRSA 6271); assay: Eradication of the infection inside the spongy bone tissue (bone grafts, peptide in carrier); type: cell-based; details: carrier (200 mg) with peptide VIII (10 mg), two days
Protocol: Experiments was carried out similarly as described above using two graft bones. The suspension of Staphylococcus aureus (MRSA 6271) in LB medium (50 - 100 µl) in the concentration 10^9 CFU/ml was pipetted into two holes drilled in each bone graft. On the next day the one hole in one bone graft was filled with the carrier (200 mg) blended with peptide VIII (10 mg). The second hole was filled with carrier alone (200 mg). In the second bone graft the two holes were filled identically.
The experiments were evaluated after two days of the treatment by the comparison of the number of bacterial colonies (CFU/ml) related to the infected hole in which the peptide was released from the carrier and acted against the infection, against the number of the colonies related to the infected hole which was filled only with the carrier alone. The results of these two independent experiments which are summarized in Table 5 clearly show high efficacy of the peptide VIII. Table 5. Effect of peptide VIII on the eradication of the infection inside the spongy bone tissue Carried out in two independent experiments.

[10] = test system: Candida albicans yeast (clinical isolate Olomouc); assay: Comparison of two similar halictin peptides for biofilm formation on the implant surface (yeast pipetted into a hole between implants); type: cell-based; details: 3.5 mg peptide in 100 mg powder cement component; two days; implant without peptide 1.8 × 10^3
Protocol: The experiment was performed under similar conditions as described in Example 5. Here, 100 mg of the powder cement component was used to prepare a paste, which was mixed with in 3.5 mg of peptide XIII and subsequently 52 µl of liquid component. The resulting paste was thoroughly mixed and then pressed into a hole prepared in the spongy part of the bone. To a next hole in the spongy part of the same bone a paste was pressed, containing comparative peptide Hal 2/4 (3.5 mg) with the sequence H-[…]NH2, which was also prepared from 100 mg of the powder component and 52 µl of the liquid component. The third hole was filled with paste without peptide prepared from the same amount of components. The Candida albicans yeast (clinical isolate Olomouc), grown in YPG, was pipetted in the hole excavated between implants equidistant (approximately 1 cm) from each. From there, the yeast penetrated through the bone tissue and was deposited on the implant with consequent formation of biofilms.
Then the implants in closed tubes with 0.4 ml of saline were treated ultrasonically four times for three minutes with occasional shaking. This way, microbial biofilm on the surface of the implant was disrupted and microbes loosed into the physiological saline. The resulting suspension was then diluted in a decimal dilution series for culturing on agar. […]

[11] = test system: MRSA (clin. isolate Motol); assay: Induced osteomyelitis model in femur heads: effect of peptides released from carrier on infection in the bone graft; type: cell-based, Staphylococcus aureus; details: ChronOS (200 mg); 10 mg; two days; carrier without peptide 4,8x10^6
Protocol: as §3, §4, §5

P. aeruginosa 5482 = assay: as above; type: cell-based; details: ChronOS (200 mg); V (9 mg); two days; carrier without peptide 1,0x10^9
Protocol: as §3, §4, §5

Row | Structure (SMILES) | Antimicrobial activity MIC (Escherichia coli) | Antimicrobial activity MIC (Candida albicans) | Antimicrobial activity MIC (Bacillus subtilis) | Antimicrobial activity MIC [1] | Antimicrobial activity MIC [2] | Hemolytic activity LC50 (human red blood cells) | Antimicrobial activity MIC (MRSA 6271) | Antimicrobial activity MIC [3] | Antimicrobial activity MIC [4] | Antimicrobial activity MIC [5] | Antimicrobial activity MIC (P.a. 5482) | CFU/hole ([6]; carrier without peptide 2,0x10^6) | CFU/implant [7] [CFU/implant] | CFU/hole ([6]; separate holes, carrier without peptide 3,9x10^6) [CFU/hole] | CFU/hole [8] [in all cases CFU/hole] | CFU/hole ([9]; first experiment, no peptide 1.2x10^7) [CFU/ hole] | CFU/hole ([9]; second experiment, no peptide 3.6x10^6) | number of colonies from the surface of the implant [10] | CFU/hole [11] | CFU/hole (P. aeruginosa 5482)
1 | CC[C@H](C)[C@H](NC(=O)[C@H](CCCCN)NC(=O)[C@H](CCCCN)NC(=O)[C@H](CC(C)C)NC(=O)[C@H](CCSC)NC(=O)[C@H](CCCCN)NC(=O)[C@H](CCSC)NC(=O)[C@H](Cc1c[nH]c2ccccc12)NC(=O)[C@H](CCCCN)NC(=O)CN)C(=O)N[C@@H](CC(C)C)C(=O)N[C@@H](CCCCN)C(N)=O [XI] (H-GKWMKMLKKILK-NH2) | 20,0 µmol.l^-1 | 12,7 µmol.l^-1 | 2,5 µmol.l^-1 | >100 µmol/L | 3,2 µmol.l^-1 | >>200 µmol.l^-1 | 20,0 µmol.l^-1 | 20,0 µmol.l^-1 | 10,0 µmol.l^-1 | 12,7 µmol.l^-1 | 5,3 µmol.l^-1 | 2,5 x10^3 CFU/hole | 0 | – | – | – | – | – | – | –
2 | CC[C@H](C)[C@H](NC(=O)[C@H](CCCCN)NC(=O)[C@H](CCCCN)NC(=O)[C@H](CC(C)C)NC(=O)[C@H](CC(C)C)NC(=O)[C@H](CCCCN)NC(=O)[C@@H](NC(=O)[C@H](Cc1c[nH]c2ccccc12)NC(=O)[C@H](CCCCN)NC(=O)CN)C(C)C)C(=O)N[C@@H](CC(C)C)C(=O)N[C@@H](CCCCN)C(N)=O [Peptide VIII] (H-GKWVKLLKKILK-NH2) | 6,3 µmol.l^-1 | 6,3 µmol.l^-1 | 2,0 µmol.l^-1 | >100 µmol/L | 2,5 µmol.l^-1 | >400 µmol/L | 9,0 µmol.l^-1 | 10,0 µmol.l^-1 | 5,0 µmol.l^-1 | 12,7 µmol.l^-1 | 3,0 µmol.l^-1 | – | – | 0 | 0 | 0 | 4.8x10^2 CFU/ hole | – | – | –
3 | CC[C@H](C)[C@H](NC(=O)[C@H](CCCCN)NC(=O)[C@H](CCCCN)NC(=O)[C@H](CC(C)C)NC(=O)[C@H](CC(C)C)NC(=O)[C@H](CO)NC(=O)[C@H](CCSC)NC(=O)[C@H](Cc1c[nH]c2ccccc12)NC(=O)[C@@H](N)CCCCN)C(=O)N[C@@H](CC(C)C)C(=O)N[C@@H](CCCCN)C(N)=O [Hal 4/2, reference compound] (H-KWMSLLKKILK-NH2) | – | – | – | – | – | – | – | – | – | – | – | – | – | – | – | – | – | 2.8 × 10^2 CFU/implant | – | –
4 | CC[C@H](C)[C@H](NC(=O)[C@H](CCCCN)NC(=O)[C@H](CCCCN)NC(=O)[C@H](CC(C)C)NC(=O)[C@H](CC(C)C)NC(=O)[C@H](CCCCN)NC(=O)[C@H](CCSC)NC(=O)[C@H](Cc1c[nH]c2ccccc12)NC(=O)[C@H](CCCCN)NC(=O)CCN)C(=O)N[C@@H](CC(C)C)C(=O)N[C@@H](CCCCN)C(N)=O [Peptide V] (H-[βAla]KWMKLLKKILK-NH2) | 6,8 µmol.l^-1 | 11,3 µmol.l^-1 | 1,8 µmol.l^-1 | 59,0 µmol.l^-1 | 2,8 µmol.l^-1 | 270 µmol/L | 11,3 µmol.l^-1 | 10,0 µmol.l^-1 | 5,7 µmol.l^-1 | 7,0 µmol.l^-1 | 2,8 µmol.l^-1 | – | – | – | – | – | – | – | 4,0 CFU/hole | 2,0x10^5 CFU/hole
